Results reported in US12329823B2 (The Scripps Research Institute, priority 2021, dated 2025).
Like-named read-outs stand apart in the source and are kept apart here. Each block holds one compound with its values, some of them ahead of it.

Tests used:
[1] = target: cynomolgous monkey GIPR; test: In vitro potency, cynomolgous monkey GIPR activation (receptor-mediated cAMP synthesis); type: cell-based; details: Table 12; read-out: In Vitro Potency GIPR EC50, Cyno
[2] = target: T1, dog GIPR (Canis lupus familiaris, UniProt A0A8I3MPG1); test: In vitro potency, dog GIPR activation (receptor-mediated cAMP synthesis); type: cell-based
T1 sequence (A0A8I3MPG1 24-449): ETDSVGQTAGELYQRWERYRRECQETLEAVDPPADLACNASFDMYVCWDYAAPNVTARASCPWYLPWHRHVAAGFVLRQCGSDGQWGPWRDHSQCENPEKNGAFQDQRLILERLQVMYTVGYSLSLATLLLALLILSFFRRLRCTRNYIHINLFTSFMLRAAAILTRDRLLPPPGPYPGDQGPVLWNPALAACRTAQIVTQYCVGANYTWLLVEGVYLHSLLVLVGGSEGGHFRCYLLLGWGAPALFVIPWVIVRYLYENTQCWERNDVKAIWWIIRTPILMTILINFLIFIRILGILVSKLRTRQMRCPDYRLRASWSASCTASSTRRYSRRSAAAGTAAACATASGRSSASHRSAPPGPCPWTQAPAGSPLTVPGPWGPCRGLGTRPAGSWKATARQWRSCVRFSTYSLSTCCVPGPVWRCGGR
Experimental: GLP-1R-CRE or HEK293-GIPR-CRE cells were seeded in 384-well plates at a density of 5000 cells per well and cultured for 18 h in DMEM with 10% FBS at 37° C. and 5% CO2. Cells were treated with peptides in a dose dependent manner for 24 h, and receptor activation was reported by luminescence intensities, using One-Glo (Promega, WI) luciferase reagent following manufacturer's instruction. The EC50 of each peptide was determined using GraphPad Prism 6 software (GraphPad, San Diego, CA). Results are depicted in FIGS. 6A-6B, FIGS. 7A-7B, FIGS. 8A-8B, FIGS. 9A-9B, and Tables 7-12. Measurements of peptide conjugate potency were expressed as half maximal effective concentration (EC50) values.

[3] = target: T2, human GIPR (Homo sapiens, UniProt P48546); test: In vitro receptor activation reporter assay (CRE-Luc, HEK293-GIPR-CRE cells; receptor-mediated cAMP synthesis); type: cell-based
T2 construct: expressed in transfected cells; host or cells: HEK293 (CRE-HEK293, HEK293-GIPR-CRE)
T2 sequence (P48546 22-466): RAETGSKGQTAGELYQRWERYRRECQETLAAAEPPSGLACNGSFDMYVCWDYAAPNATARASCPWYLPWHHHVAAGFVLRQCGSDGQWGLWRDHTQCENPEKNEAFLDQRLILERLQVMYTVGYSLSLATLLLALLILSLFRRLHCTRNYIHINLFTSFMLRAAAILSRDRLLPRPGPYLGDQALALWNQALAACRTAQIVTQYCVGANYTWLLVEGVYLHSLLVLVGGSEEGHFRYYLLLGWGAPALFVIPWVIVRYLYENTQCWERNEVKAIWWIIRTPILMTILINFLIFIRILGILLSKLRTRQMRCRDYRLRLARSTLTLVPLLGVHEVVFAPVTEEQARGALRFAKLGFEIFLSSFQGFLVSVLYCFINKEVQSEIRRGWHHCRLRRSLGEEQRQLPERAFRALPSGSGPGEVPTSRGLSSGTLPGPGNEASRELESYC

[4] = Plasma stability, 24 h incubation in mouse plasma (LC-MS); type: in vitro ADME
Experimental: (§1) To investigate the stability of the conjugates in mouse, cyno monkey, dog, and human plasma, conjugate mCMD307 was incubated in plasma for 24 h (Table 13). At certain time intervals a sample of plasma was taken and plasma proteins precipitated. Samples were analyzed using LC-MS.

[5] = in vitro; type: in vitro ADME, cyno monkey; details: monkey, plasma
Experimental: as §1

[6] = in vitro; type: in vitro ADME; details: plasma
Experimental: as §1

[7] = type: in vivo, mouse
Experimental: […]. Peptide dissolved in PBS (pH 8.2) was administered via i.v. or s.c. route into CD1 mice ([…]). Blood samples were collected at the indicated time points and analyzed by in vitro GLP-1R activity assay. The assay was performed in triplicate. Pharmacokinetic analyses were determined by noncompartmental analysis with WinNonLin.
[…]. It is also noteworthy that although our focus for half-life extension was on the serum-binding ability of the stapled peptide, there may be a combination of effects, for example self-assembly and depoting at the injection site, that led to the delayed onset of Cmax and the extended half-life.
CHOK1 cells stably overexpressed human GLP-1R or GIPR (20 μL of 5000 cells per well) were seeded in a white solid 384 well plate covered with metal lid and incubated overnight. On day 2, the culture medium was replaced by fresh medium containing no FBS (for 0% FBS group). Cells were treated with 5 μL peptide in 12-point dose response, in culture medium with 0.5 mM IBMX in triplicate for 30 min at 37° C., 5% CO2. cAMP dynamic 2 kit from Cisbio was used to detect cAMP level. Briefly, 25 μL of cAMP detection reagent (1:1:38 of cAMP-d2, Cryptate conjugate, lysis buffer) per well was added and incubated at room temperature for 1 h. For cell negative control wells, cAMP detection reagent without d2 was added. […] Animals Animal care and experimental procedures were approved by the Institutional Animal Care and Use Committee (IACUC) of Calibr at the Scripps Research Institute, strictly following the NIH guidelines for humane treatment of animals. Pharmacokinetics of peptides in mice Female CD-1 mice (n=4 per group) from Charles River Laboratory were fasted overnight and administered 100 μL of each peptide in phosphate buffered saline by intravenous (i.v.) or subcutaneous (s.c.) route. Food was provided to mice after blood collection at 3 h time point. Blood was collected into heparin tubes and centrifuged at 3,000×g for 15 min. The resulting plasma were then stored at −80° C. for peptide concentration determination. The concentrations of peptides in plasma at each time point were determined by in vitro cell based activity assay. Briefly, HEK293-GLP-1R-CRE cells were treated with plasma samples at different time points (5-point dose response, starting from 1:10 to 1:100 dilution of each plasma sample) and incubated for 16 h in DMEM with 10% FBS at 37° C. with 5% CO2, and the firefly luciferase activity was then measured. Simultaneously, the same peptides were used to obtain standard curves and parameters for Bottom, Top, EC50, and Hill Slope. Relative luciferase unit (RLU) for each plasma sample was used to calculate the peptide concentrations in plasma (nmol/L), using parameters derived from the standard curve: (RLU=Bottom+(Top−Bottom)/(1+10^(Log EC50−Conc.)×Hill Slope)) Peptide concentrations in plasma were obtained and plotted against time points to obtain in vivo half-life of each peptide, using WinNonLin Phoenix software (Pharsight Corp, St. Louis, MO). Oral glucose tolerance test (OGTT) Female Charles River CD-1 mice were fasted overnight and then administrated 150 μL of each peptide in PBS (pH=8.2) by i.v. or s.c. route. […]. Body weight and food intake were monitored daily throughout the study. At the end of the experiment, mice were sacrificed, and visceral fat mass was weighed. Collected plasma was used for cholesterol level determination according to the manufacturer's guide (cholesterol assay kit, Abcam, Cambridge, England) and triglyceride level using a triglyceride colorimetric assay kit (Cayman chemical, Ann Arbor, Michigan). Oil red staining Frozen tissue sections of liver were cut at 10 μm and air dried onto the slides. After fixation in 10% formalin for 5 min, the slides were briefly washed with running tap water for 10 min, followed by rinsing with 60% isopropanol. Subsequently, oil red 0 working solution (0.3% oil red 0) was used to stain lipid for 15 min. […]

[8] = Acute oral glucose tolerance test (OGTT) in wild-type mice, 2 h and 96 h post injection; type: in vivo, mouse; details: 96 h after administration; 10 nmol/kg s.c.
[9] = High-fat-diet-induced obesity (DIO) mouse model, chronic administration; type: in vivo; details: DIO mice
[10] = target: T3, human GLP-1R (Homo sapiens, UniProt P43220); test: In vitro receptor activation reporter assay (CRE-Luc, HEK293-GLP-1R-CRE cells; receptor-mediated cAMP synthesis); type: cell-based; set-up: expressed in transfected cells; host or cells: HEK293 (CRE-HEK293, HEK293-GLP-1R-CRE); details: read-out: EC50 GLP1R
T3 sequence (P43220 24-463): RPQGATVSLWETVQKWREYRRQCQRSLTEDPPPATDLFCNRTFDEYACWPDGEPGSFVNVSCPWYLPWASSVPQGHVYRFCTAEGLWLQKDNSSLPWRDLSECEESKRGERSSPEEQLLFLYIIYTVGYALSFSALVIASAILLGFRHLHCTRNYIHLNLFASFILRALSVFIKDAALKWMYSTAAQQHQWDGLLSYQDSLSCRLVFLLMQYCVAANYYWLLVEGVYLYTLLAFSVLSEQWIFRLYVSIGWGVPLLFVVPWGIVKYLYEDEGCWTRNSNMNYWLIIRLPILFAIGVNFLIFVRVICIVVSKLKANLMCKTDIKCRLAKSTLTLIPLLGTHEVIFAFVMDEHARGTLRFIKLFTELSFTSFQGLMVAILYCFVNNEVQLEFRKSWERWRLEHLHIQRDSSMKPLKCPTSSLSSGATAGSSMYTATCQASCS

[11] = In vivo oral glucose tolerance test (OGTT) 12 h after a single S.C. dose; set-up: species or system mouse; details: 10 nmol/kg S.C.; 12 h before glucose
Experimental: Mice were fasted overnight prior to the oral glucose tolerance test (OGTT), and then dosed with peptide. After 12 h, 1 g of glucose solution per kg body weight was administered orally, and mouse tail blood glucose levels were measured before (0 min) and after glucose challenge for 90 minutes (with measurements at 15, 30, 60 and 90 minutes) (FIG. 16). The data were compared using the unpaired Student's t test. Where appropriate, data were compared using repeated measures or one-way analysis of variance, followed by the Student-Newman-Keuls post hoc test. Calculations for […] (mg/dL*min) were also analyzed and graphed in FIG. 16. […]. […].

[12] = target: T2, human GIPR; details: literature, in words; cited from earlier work
[13] = target: T3, human GLP-1R; details: literature, in words; cited from earlier work

Compound: CC[C@H](C)[C@H](NC(=O)[C@H](CO)NC(=O)[C@H](Cc1ccc(O)cc1)NC(=O)[C@H](CC(=O)O)NC(=O)[C@H](CO)NC(=O)[C@@H](NC(=O)[C@H](Cc1ccccc1)NC(=O)[C@@H](NC(=O)CNC(=O)[C@H](CCC(=O)O)NC(=O)[C@H](C)NC(=O)[C@@H](N)Cc1ccc(O)cc1)[C@@H](C)O)[C@@H](C)CC)C(=O)N[C@@H](C)C(=O)N[C@@H](CCSC)C(=O)N[C@@H](CC(=O)O)C(=O)N[C@@H](CCCCN)C(=O)N[C@H](C(=O)N[C@@H](Cc1c[nH]cn1)C(=O)N[C@@H](CCC(N)=O)C(=O)N[C@@H](CCC(N)=O)C(=O)N[C@@H](CC(=O)O)C(=O)N[C@@H](Cc1ccccc1)C(=O)N[C@H](C(=O)N[C@@H](CC(N)=O)C(=O)N[C@@H](Cc1c[nH]c2ccccc12)C(=O)N[C@@H](CC(C)C)C(=O)N[C@@H](CC(C)C)C(=O)N[C@@H](C)C(=O)N[C@@H](CCC(N)=O)C(=O)N[C@@H](CCCCN)C(=O)NCC(=O)N[C@@H](CCCCN)C(=O)N[C@@H](CCCCN)C(=O)N[C@@H](CC(N)=O)C(=O)N[C@@H](CC(=O)O)C(=O)N[C@@H](Cc1c[nH]c2ccccc12)C(=O)N[C@@H](CCCCN)C(=O)N[C@@H](Cc1c[nH]cn1)C(=O)N[C@@H](CC(N)=O)C(=O)N[C@H](C(=O)N[C@H](C(=O)N[C@@H](CCC(N)=O)C(=O)O)[C@@H](C)O)[C@@H](C)CC)C(C)C)[C@@H](C)CC [hGIP, reference compound]
- EC50 [1]: 0.69 nM
- EC50 [2]: 0.7 nM

- EC50 ([3]; Table 8, read-out: EC50 GIPR): 0.01 nM
- EC50 ([3]; unnumbered table, run 02/19, read-out: EC50 GIPR 02/19): 0.04 nM
- EC50 ([10]; Table 7): 0.01 nM
- EC50 ([10]; Table 8): 0.03 nM
Compound: CC[C@H](C)[C@H](NC(=O)[C@H](CO)NC(=O)[C@H](Cc1ccc(O)cc1)NC(=O)[C@H](CC(=O)O)NC(=O)[C@H](CO)NC(=O)[C@@H](NC(=O)[C@H](Cc1ccccc1)NC(=O)[C@@H](NC(=O)CNC(=O)[C@H](CCC(=O)O)NC(=O)C(C)(C)NC(=O)[C@@H](N)Cc1ccc(O)cc1)[C@@H](C)O)[C@@H](C)O)C(=O)N[C@@H](Cc1ccc(O)cc1)C(=O)N[C@H]1CCCCNC(=O)CN(C(=O)CCNC(=O)CCOCCOCCOCCNC(=O)CCCCCCCCCCCCCCCCC(=O)O)CC(=O)NCCCC[C@@H](C(=O)N[C@@H](Cc2ccccc2)C(=O)N[C@H](C(=O)N[C@@H](CC(N)=O)C(=O)N[C@@H](Cc2c[nH]c3ccccc23)C(=O)N[C@@H](CC(C)C)C(=O)N[C@@H](CC(C)C)C(=O)N[C@@H](C)C(=O)NCC(=O)NCC(=O)N2CCC[C@H]2C(=O)N[C@@H](CO)C(=O)N[C@@H](CO)C(=O)NCC(=O)N[C@@H](C)C(=O)N2CCC[C@H]2C(=O)N2CCC[C@H]2C(=O)N2CCC[C@H]2C(=O)N[C@@H](CO)C(N)=O)C(C)C)NC(=O)C(C)(C)NC(=O)[C@H](C)NC(=O)[C@H](C)NC(=O)[C@H](CCC(N)=O)NC(=O)[C@H](CCCCN)NC(=O)[C@H](CC(=O)O)NC1=O [mCMD307, YAibEGT-FTSDY-SIYXD-KQAAAib-XFVNW-LLAGG-PSSGA-PPPS-NH2 (where each X is K) (SEQ ID NO: 39)]
- remaining at 24 h [4]: 53%
- remaining at 24 h [5]: 87%
- remaining at 24 h ([6]; dog): 92%
- remaining at 24 h ([6]; human): 92%
- AUC0-last ([7]; Table 6, plasma, route not given): 59200 ± 6810 ng·h/mL
- Tmax ([7]; Table 6, plasma, route not stated in table (s.c. 1 mg kg-1 / i.v. 0.3 mg kg-1 per FIG. 3)): 2.33 ± 1.16 h
- Cmax ([7]; mouse, in vivo): 4710 ± 659 ng/mL
- Vd ([7]; mouse, in vivo): 0.18 ± 0.05 L/kg
- clearance ([7]; mouse, in vivo): 0.28 ± 0.04 mL/min/kg
- half-life ([7]; mouse, in vivo): 11.6 ± 0.85 h
- fasted glucose levels [8]: significantly reduce fasted glucose levels
- glucose handling (OGTT) versus vehicle [8]: more significant improvements in handling glucose
- body weight, food intake ([9]; 40 μg/kg, FIG. 5A): significantly reduced body weight food intake
- fed blood glucose ([9]; day 21, versus PBS, FIG. 5B): significantly lower than compared to PBS-treated DIO mice
- body weight ([9]; s.c., FIG. 5A): steady reduction in body weight
- fasting blood glucose levels ([9]; s.c., FIG. 5A): steady reduction

Compound: Tirzepatide
- EC50 [1]: 0.08 nM
- effects on glucose tolerance [11]: indistinguishable effects on glucose tolerance
- binding affinity to human GIPR versus hGIP [12]: comparable affinity than that of hGIP
- GLP-1 receptor binding versus native hGLP-1 [13]: approximately five times lower GLP-1 receptor binding than native hGLP-1
